{
  "source": "patent US11673891B2",
  "about": "“Imidazopyrimidine compounds and uses thereof” (Dana-Farber Cancer Institute, Inc., priority 2017, dated 2023)",
  "key": {"human adult PBMCs": {"tested_on": "human adult PBMCs", "assay": "TNF production by ELISA after stimulation of human adult PBMCs", "assay_type": "cell-based", "conditions": "33 μM, 18 hours", "protocol": "Table 1. Activity of Exemplary Imidazopyrimidine Compounds on Stimulating TNF Production in PBMCs as Compared to Compound R848 Table 1 provides the activity of exemplary compounds on stimulating TNF production in PBMCs as compared to the benchmark compound R848. Specifically, TNF production was measured by ELISA after stimulation of adult PBMCs with compound 037 analog family or the compound R848 at 33 μM for 18 hours. Analogs are ranked top to bottom by median percentage TNF production (TNF %) as compared to R848 (N=3-5). The compounds have been classified in the following categories according to TNF %: high activity—class A: TNF %>15%; medium activity—class B: 1%<TNF %≤15%; low activity—class C: TNF %≤1%.\nELISAs and Multiplex-Analyte Assays. Supernatants derived from human PBMCs and DC stimulations were assayed by ELISA for TNF (ThermoFisher Scientific; Waltham, Mass., USA). Cytokine and chemokine expression profiles (e.g., IFNγ, IL-9, IL-10, IL-12 (p70), IL-13, IL-1β, IL-23, IL-27, IL-28A, IL-33, IL-6, MIP-3α/CCL20, and TNF) in cell culture supernatants were measured using a customized Milliplex® Human Th17 Magnetic Bead Panel according to the manufacturer's instructions (Millipore, Chicago, Ill., USA). Assays were read and analyzed on the Luminex® 100/200™ System and xPOTENT® software (Luminex, Austin, Tex.). A minimum threshold was set at the minimum detectable concentration for each individual assay, defined as three standard deviations above the mean background.\nPBMCs were isolated from blood using a Ficoll density gradient. PBMCs either used fresh or were stored at 5×10^7 cells per vial in 1 mL RPMI containing 20% autologous plasma and 10% DMSO at −80° C. until use. Stimulation plates were prepared by transferring 0.66 μl of DMSO-dissolved compounds (10 mM) to each well of a round bottom 96-well plate. PBMCs isolated from human adult donors were resuspended at a concentration of 10^5 cells/200 μl of RPMI supplemented with 10% of platelet-poor plasma. 200 μl of the cell suspension were transferred to each well resulting in a final compound concentration of […]. After about 18 hours of incubation (37° C., 5% CO2), plates were spun down (500×g, room temperature, 5 minutes) and supernatants were harvested for further analysis."}, "[1]": {"tested_on": "Splenocytes isolated from 6-8 weeks old C57BL/6 mice", "assay": "Mouse splenocyte in vitro stimulation, murine IL-6 by ELISA", "assay_type": "cell-based", "conditions": "C57BL/6 splenocytes, 33 μM, 18 hours", "protocol": "Splenocytes isolated from 6-8 weeks old C57BL/6 mice and human adult PBMCs were stimulated for 18 hours with compound 037 and its analogs at 33 μM. Production of murine IL-6 and human TNF was assessed in cell-free supernatants by ELISA. Results are presented as scatter plot in which each dot represents median production of human TNF (N=3-5) or murine IL-6 (N=6) for each compound.\nSpleens were harvested from 6-8 weeks old C57BL/6 mice. For splenocyte isolation, spleens were mashed through a […] strainer, washed with PBS, and erythrocytes were lysed with 2 min of incubation in ammonium chloride-based lysis buffer (BD Biosciences). Cells were then counted and plated 2×10^6 per well (round bottom 96-well plate) in 200 μl of complete culture medium (RPMI 1640 plus 10% heat-inactivated fetal bovine serum [FBS, GE Healthcare HyClone], 50 μM 2-mercaptoethanol, 2 mM 1-glutamine, 100 U/ml penicillin/streptomycin [Gibco ThermoFisher Scientific]) with 0.66 μl of DMSO-dissolved compounds (10 mM) in order to achieve a final compound concentration of 33 μM. After 18 hours of incubation (37° C., 5% CO2), plates were spun down (500×g, room temperature, 5 minutes) and supernatants were harvested for further analysis."}},
  "note": "Entries after “also recorded” stand apart in the source; their conditions may differ.",
  "data": [
    {"compound": "Cc1cnc2nc(-c3ccc(C)c(NC(=O)c4ccccc4C(F)(F)F)c3)cn2c1", "note": "[FRF-02-144-3]", "values": [
      {"measurement": "TNF (Median)", "setting": "human adult PBMCs; adult PBMCs, ELISA, median, N=3-5, unit not given (FIG. 6B/7B legends: TNF concentration in ng/ml)", "value": 5.397},
      {"measurement": "Activity class", "setting": "human adult PBMCs; class according to TNF % as compared to R848, adult PBMCs", "value": "A (high activity—class A: TNF %>15%)"},
      {"measurement": "Production of human TNF by PBMCs (in words)", "setting": "human adult PBMCs; human adult PBMCs, ELISA", "value": "activates both human PBMCs and mouse splenocytes; also recorded: active on both human and murine cells"},
      {"measurement": "TNF % (Median)", "setting": "human adult PBMCs; median percentage TNF production as compared to R848, adult PBMCs, N=3-5", "value": 99.81, "unit": "%"},
      {"measurement": "Production of murine IL-6 by splenocytes (in words)", "setting": "[1]", "value": "activates both human PBMCs and mouse splenocytes; also recorded: active on both human and murine cells"}
    ]}
  ]
}
